Patent US20040029186A1, “Methods” (priority 2000, published 2004)

Target: T1, α4β1 integrin (Homo sapiens, UniProt P05556+P13612)
T1 construct: endogenous in cells; host or cells: cells of heparinised human whole blood
Assay: Human whole blood cell adhesion to VCAM-1 coated magnetic beads, in vitro
Assay type: cell-based
Conditions: 1 mM manganese chloride, 1 h room temperature, control samples without antibody
Experimental: Whole human or animal blood (e.g. rat, mouse, dog), was collected into sodium heparin (10 Units/ml blood).
487.5 μl aliquots of heparinised naive human or animal whole blood were dispensed into reaction tubes containing 7.5 μl biotinylated VCAM beads and either 5 μl of a solution of a compound believed to be an α4β1 integrin inhibitor or, as a control, 5 μl of the solvent used to dissolve the compound and either with or without 2 μl anti-α4 antibody. […]
After this time the wash procedure with chilled PBS was carried out three times before the addition of 130 μl per well of 2% Triton X-100 (Sigma T-9284) in distilled water to lyse the cells adhering to the beads. The beads were once again captured by the Dynal MPC® magnet, 100 μl aliquots of the solution from each well was transferred to a clean 96 well flat-bottomed plate and the fluorescence of each well measured using an Fmax fluorimeter (Molecular Devices, Crawley, West Sussex), excitation 485 nm, emission 538 nm. […]
The tubes were rotated on a windmill mixer for 2 h at 4° C. before addition of 500 μl ice cold PBS and placing on a Dynal MPC® magnet for 10 min to recover the beads. […] The fluorescence of each well was measured using a fluorimeter, excitation 485 nm, emission 538 nm. Results were expressed as a percentage of the fluorescence in control samples containing no antibody. […]

T1 sequence (P13612 34-1032): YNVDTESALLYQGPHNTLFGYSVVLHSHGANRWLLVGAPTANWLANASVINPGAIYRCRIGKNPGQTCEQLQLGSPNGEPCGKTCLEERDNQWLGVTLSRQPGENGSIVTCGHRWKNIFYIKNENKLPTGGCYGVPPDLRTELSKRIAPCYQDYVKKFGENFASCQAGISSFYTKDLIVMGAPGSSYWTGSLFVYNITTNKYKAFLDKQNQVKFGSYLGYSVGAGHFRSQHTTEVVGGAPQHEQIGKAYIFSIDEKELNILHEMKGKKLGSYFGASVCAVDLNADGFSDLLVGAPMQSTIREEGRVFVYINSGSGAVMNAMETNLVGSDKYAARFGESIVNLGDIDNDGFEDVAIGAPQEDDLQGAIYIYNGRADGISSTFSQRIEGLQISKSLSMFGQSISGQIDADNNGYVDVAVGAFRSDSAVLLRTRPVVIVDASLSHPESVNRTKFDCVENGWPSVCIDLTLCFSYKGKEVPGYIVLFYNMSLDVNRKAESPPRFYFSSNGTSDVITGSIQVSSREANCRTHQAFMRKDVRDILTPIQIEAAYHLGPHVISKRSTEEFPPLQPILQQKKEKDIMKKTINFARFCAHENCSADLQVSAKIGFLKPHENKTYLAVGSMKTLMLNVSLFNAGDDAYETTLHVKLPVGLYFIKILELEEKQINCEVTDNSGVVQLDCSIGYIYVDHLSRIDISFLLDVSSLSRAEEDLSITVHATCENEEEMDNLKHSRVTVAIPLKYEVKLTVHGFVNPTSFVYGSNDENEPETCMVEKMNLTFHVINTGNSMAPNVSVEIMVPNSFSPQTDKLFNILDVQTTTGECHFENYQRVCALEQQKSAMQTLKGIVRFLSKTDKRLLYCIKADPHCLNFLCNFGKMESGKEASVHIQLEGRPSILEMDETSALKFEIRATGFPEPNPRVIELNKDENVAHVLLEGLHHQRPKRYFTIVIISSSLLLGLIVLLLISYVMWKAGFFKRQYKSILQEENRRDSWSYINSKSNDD
T1 sequence (P05556 21-798): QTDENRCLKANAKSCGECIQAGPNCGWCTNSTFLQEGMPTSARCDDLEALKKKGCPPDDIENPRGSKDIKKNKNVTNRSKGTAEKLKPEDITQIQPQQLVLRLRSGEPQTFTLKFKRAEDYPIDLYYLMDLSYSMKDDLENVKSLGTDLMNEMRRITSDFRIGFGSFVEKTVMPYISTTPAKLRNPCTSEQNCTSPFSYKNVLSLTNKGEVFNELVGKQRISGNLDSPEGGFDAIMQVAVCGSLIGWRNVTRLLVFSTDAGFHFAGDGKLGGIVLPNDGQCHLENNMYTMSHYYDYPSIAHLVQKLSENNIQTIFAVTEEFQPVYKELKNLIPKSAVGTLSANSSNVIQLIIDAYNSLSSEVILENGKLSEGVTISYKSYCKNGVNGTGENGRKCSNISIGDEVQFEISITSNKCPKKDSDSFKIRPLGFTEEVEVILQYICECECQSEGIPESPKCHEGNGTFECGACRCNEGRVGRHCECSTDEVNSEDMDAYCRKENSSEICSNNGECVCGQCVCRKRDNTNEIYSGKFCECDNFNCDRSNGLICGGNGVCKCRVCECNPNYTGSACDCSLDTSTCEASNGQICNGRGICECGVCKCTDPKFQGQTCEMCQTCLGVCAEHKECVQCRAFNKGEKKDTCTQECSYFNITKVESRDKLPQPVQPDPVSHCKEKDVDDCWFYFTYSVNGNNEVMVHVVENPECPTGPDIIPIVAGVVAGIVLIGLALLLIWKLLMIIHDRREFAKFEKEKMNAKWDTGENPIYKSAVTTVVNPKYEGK

Manganese chloride [Mn^2+] was tested, and the “increase of whole blood cell adhesion to VCAM-1 coated beads” value was “approximately 2 fold”.
